We go through five compounds from patent publication US20080138437A1, “Antitumor Agent” (priority 2004, published 2008).

In series [1] the test system is 15 types of human cancer cells. The experiment in a line: Cell growth inhibition test, MTT, average GI 50. The format is cell-based. As to conditions: average of 15 human cancer cell types, 48 hours exposure. On the procedure: Appropriate amounts of each of the human cancer cells suspended in 5% fetal bovine serum-supplemented medium were plated into a 96-well plate, and allowed to adhere to the wells in a 37° C. CO2 incubator overnight.
These cancer cells were exposed to each anticancer agent for 48 hours. Cell growth was assayed by MTT. Absorbance of the control well (C) and the test well (T) was measured at 550 nm.
The absorbance of the test well immediately after adding the drug (TO) was also measured. Using these measured values, GI 50 of each drug was calculated, and the drug concentration at that time was obtained. For comparison, a similar test was performed for each of the anticancer agents (Comparative Tests 4-1 to 4-7).

Series [2] in a line: in vivo. As to conditions: BDF1, mouse, sc.
The nature of series [3]: in vivo. As to conditions: male, C57BL/6, mouse.
The next series has as its system C57BL/6 male mouse. As to conditions: one-time, 14 days observation.
The subject of the next series is A549 lung cancer cells. The series can be described thus: Antitumor test, transplanted tumor in nude mice. It counts as in vivo, human. The settings on record: control, drug without hydroxyapatite adsorption. From the text: (§1) (Experimental Test 5-1 to 5-5).
(§2) Female nude mice (7 weeks old, 16 to 22 g) with a BALB/c genetic background were used for the tests. Human cancer cells used for the tests were GCIY stomach cancer cells, HCT-15 colon cancer cells, A549 lung cancer cells, and OVCAR-3 ovarian cancer cells. Human cancer cells were subcutaneously transplanted into nude mice, tumor lumps were formed, and these carcinomas were used for the tests.
(§3) Aseptically collected tumors were sliced into tumors of 3×3×3 mm, and then subcutaneously transplanted into a new nude mouse. When the tumors reached a volume of 100 to 300 mm^3, the animals were arbitrarily divided into groups of six (Day 0). […] Intravascular administration was the administration route for all.
(§4) After administration, between Days 24 to 31, the length (L) and width (W) of the tumor lump of the animal were measured twice a week, and the tumor volume (TV) was calculated according to the following formula: TV=(L×W^2)/2. Antitumor effect was determined at Day 14. The relative tumor volume (RTV) was obtained by the following formula: RTV=TV14/TV0, using values of the tumor volume at Day 0 and Day 14 (referred to as TV0 and TV14). Antitumor effect was evaluated as the tumor regression rate at Day 14 (T/C%). Herein, T/C %=100×(average RTV of the treated group)/(RTV of the control group).
(§5) As a control, each drug was tested without hydroxyapatite adsorption (Comparative Tests 5-10 to 5-14).

Series [4] relates to OVCAR-3 ovarian cancer cells. The experiment in a line: Antitumor test, transplanted tumor in nude mice. It counts as in vivo, human. As to conditions: control, drug without hydroxyapatite adsorption.
From the text: as §1, §2, §3, §4, §5

Series [5] relates to HCT-15 colon cancer cells. The experiment in a line: Antitumor test, transplanted tumor in nude mice. The format is in vivo, human. As to conditions: control, drug without hydroxyapatite adsorption.
From the text: as §1, §2, §3, §4, §5

In series [6] the test system is GCIY stomach cancer cells. The series can be described thus: Antitumor test, transplanted tumor in nude mice. It counts as in vivo, human. The settings on record: control, drug without hydroxyapatite adsorption.
From the text: as §1, §2, §3, §4, §5

Counter-ions that a name gives are not always drawn. Like-named read-outs stand apart in the source and are kept apart here.
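Wherever deaths versus administered animals is given: mice given a single dose and followed for 14 days, with deaths tallied, LD50 derived from the doses given and the resulting death counts.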

As for `COc1cccc2c1C(=O)c1c(O)c3c(c(O)c1C2=O)C[C@@](O)(C(=O)CO)C[C@@H]3O[C@H]1C[C@H](N)[C@H](O)[C@H](C)O1` [Doxorubicin], the GI50 in series [1] came to 72 nM. The LD50 in “in vivo [2]” came out at 10 mg/kg.
For `COc1cc([C@@H]2c3cc4c(cc3[C@@H](O[C@@H]3O[C@@H]5CO[C@@H](C)O[C@H]5[C@H](O)[C@H]3O)[C@H]3COC(=O)[C@H]23)OCO4)cc(OC)c1O` [Etoposide], the LD50 in “in vivo [3]” amounted to 32.7 mg/kg; in “in vivo [3]” (po), 220 mg/kg. In series [1], this compound returned a GI50 of 5110 nM. Besides, the “deaths versus administered animals” value is 0/6 with C57BL/6 male mouse (10 mg/kg intravascular); 1/6 with C57BL/6 male mouse (20 mg/kg intravascular); 2/6 in the series on C57BL/6 male mouse (30 mg/kg intravascular); 5/7 in the series on C57BL/6 male mouse (40 mg/kg intravascular); 5/6 in the series with C57BL/6 male mouse (50 mg/kg intravascular); 6/6 in the series with C57BL/6 male mouse (60 mg/kg intravascular). Further, the “Regression rate of transplanted cancer (T/C %) at Day 14” value (shortened to “Regression rate … (T/C %) at Day 14”) in the series on A549 lung cancer cells is recorded as 72%; in series [4], 76%; in series [5], 67%; in series [6] it was 93%.
The compound `O=c1[nH]cc(F)c(=O)[nH]1` [Fluorouracil] displayed an LD50 in “in vivo [3]” of 244 mg/kg. This compound also yielded a GI50 in series [1] of 36800 nM. Besides, the “deaths versus administered animals” value in the series with C57BL/6 male mouse (50 mg/kg intravascular) is 0/5; with C57BL/6 male mouse (100 mg/kg intravascular) it was 1/5; in the series on C57BL/6 male mouse (150 mg/kg intravascular), 1/5; in the series with C57BL/6 male mouse (200 mg/kg intravascular), 2/5; in the series with C57BL/6 male mouse (250 mg/kg intravascular) it was 2/6; in the series on C57BL/6 male mouse (300 mg/kg intravascular), 3/5. The “deaths versus administered animals” value was 5/6 in the series with C57BL/6 male mouse (350 mg/kg intravascular) and 6/6 in the series on C57BL/6 male mouse (400 mg/kg intravascular). Further, the “Regression rate … (T/C %) at Day 14” value in the series on A549 lung cancer cells is 117%; in series [4], 74%; in series [5] it was 59%; in series [6] it was 69%.
As for `Cc1ncc(CNC(=O)N(CCCl)N=O)c(N)n1` [Nimustine hydrochloride], the LD50 in “in vivo [2]” was found to be 50 mg/kg.
In turn, `CC[C@]1(O)C[C@H]2CN(CCc3c([nH]c4ccccc34)[C@@](C(=O)OC)(c3cc4c(cc3OC)N(C=O)[C@H]3[C@@](O)(C(=O)OC)[C@H](OC(C)=O)[C@]5(CC)C=CCN6CC[C@]43[C@@H]65)C2)C1` [Vincristine sulfate] gave a 50% lethal dose (LD50) in the series “in vivo [3]” of 1.98 mg/kg. In addition, it took 3.6 nM to inhibit growth in series [1] by half (GI50). The “deaths versus administered animals” value in the series with C57BL/6 male mouse (1.0 mg/kg intravascular) is given as 0/5; with C57BL/6 male mouse (1.5 mg/kg intravascular) it was 2/5; in the series on C57BL/6 male mouse (2.0 mg/kg intravascular), 3/8; in the series on C57BL/6 male mouse (3.0 mg/kg intravascular), 7/8; in the series with C57BL/6 male mouse (3.5 mg/kg intravascular) it was 8/8. The “Regression rate … (T/C %) at Day 14” value in the series on A549 lung cancer cells amounted to 76%; in series [4], 79%; in series [5], 101%; in series [6], 81%.

As a reminder, the GI50 is the concentration giving 50% growth inhibition. A low value points to greater sensitivity of the cells. A word on the LD50: it is the dose expected to kill half of the subjects tested.
